# From patent US9828369B2, “Isoquinoline derivatives useful as inhibitors of diacylglyceride O-acyltransferase 2” (Merck Sharp & Dohme Corp., priority 2014, dated 2017)
# Molecular target: hDGAT2 (Homo sapiens (Human), UniProt Q96PD7)
# Assay: DGAT2 enzymatic activity assay (triolein formation, LC/MS/MS)
# Conditions: not given
# hDGAT2, sequence (Q96PD7 whole entry): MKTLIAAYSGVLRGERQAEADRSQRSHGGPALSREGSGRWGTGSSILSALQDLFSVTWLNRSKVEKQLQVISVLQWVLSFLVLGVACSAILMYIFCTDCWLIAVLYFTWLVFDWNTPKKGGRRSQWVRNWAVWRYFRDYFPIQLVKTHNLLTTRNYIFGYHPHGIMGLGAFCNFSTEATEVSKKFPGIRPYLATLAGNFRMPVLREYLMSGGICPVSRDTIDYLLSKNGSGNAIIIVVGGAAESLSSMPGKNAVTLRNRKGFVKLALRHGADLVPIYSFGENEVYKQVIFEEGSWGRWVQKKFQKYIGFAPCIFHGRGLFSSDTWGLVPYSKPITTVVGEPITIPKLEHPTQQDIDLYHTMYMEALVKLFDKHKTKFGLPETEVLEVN
row,IC50 [nM],SMILES
1,118,"COc1cccc(-c2ccc(CNC(=O)[C@H](C)c3ccc4cc(OC)ccc4c3)c3cnccc23)c1 (racemic) [Example 142, (R/S)-2-(6-methoxynaphthalen-2-yl)-N-((5-(3-methoxyphenyl)isoquinolin-8-yl)methyl)propanamide]"
2,923,"COc1cccc(-c2ccc(CNC(=O)[C@H](C)c3ccc(CC(C)C)cc3)c3cnccc23)c1 (racemic) [Example 146, (R/S)-2-(4-isobutylphenyl)-N-((5-(3-methoxyphenyl)isoquinolin-8-yl)methyl)propanamide]"

# Same assay, conditions: read-out: IC50 values for inhibition of DGAT2; membrane prep of Sf-9 cells expressing hDGAT2; 25 μM diolein, 10 μM oleoyl-CoA; room temperature; triolein by LC/MS/MS
row,IC50 [nM],SMILES
1,306,"COc1cccc(-c2ccc(CNC(=O)Cc3ccccc3Oc3ccccc3)c3cnccc23)c1 [Example 55, N-((5-(3-methoxyphenyl)isoquinolin-8-yl)methyl)-2-(2-phenoxyphenyl)acetamide]"
2,1640,"COc1cccc(-c2ccc(CNC(=O)Cc3cccc(S(C)(=O)=O)c3)c3cnccc23)c1 [Example 56, N-((5-(3-methoxyphenyl)isoquinolin-8-yl)methyl)-2-(3-(methylsulfonyl)phenyl)acetamide]"
3,1750,"COc1cccc(-c2ccc(CNC(=O)Cc3ccccc3C(F)(F)F)c3cnccc23)c1 [Example 51, N-((5-(3-methoxyphenyl)isoquinolin-8-yl)methyl)-2-(2-(trifluoromethyl)phenyl)acetamide]"
4,3710,"COc1cccc(-c2ccc(CNC(=O)Cc3cccc(F)c3)c3cnccc23)c1 [Example 52, 2-(3-fluorophenyl)-N-((5-(3-methoxyphenyl)isoquinolin-8-yl)methyl)acetamide]"
5,696,"COc1cccc(-c2ccc(CNC(=O)C3CC3(F)c3ccccc3)c3cnccc23)c1 (stereo not drawn) [Example 109, 2-fluoro-N-((5-(3-methoxyphenyl)isoquinolin-8-yl)methyl)-2-phenylcyclopropanecarboxamide]"
6,1560,"COc1cccc(-c2ccc(CNC(=O)c3ccc(-c4cccc(F)c4)cc3)c3cnccc23)c1 [Example 88, 3′-fluoro-N-((5-(3-methoxyphenyl)isoquinolin-8-yl)methyl)-[1,1′-biphenyl]-4-carboxamide]"
7,745,"COc1cccc(-c2ccc(CNC(=O)c3cccc4ncccc34)c3cnccc23)c1 [Example 45, N-((5-(3-methoxyphenyl)isoquinolin-8-yl)methyl)quinoline-5-carboxamide]"
8,602,"COc1cccc(-c2ccc(CNC(=O)Cc3cccc(OC(F)(F)F)c3)c3cnccc23)c1 [Example 62, N-((5-(3-methoxyphenyl)isoquinolin-8-yl)methyl)-2-(3-(trifluoromethoxy)phenyl)acetamide]"
9,3200,"COc1cccc(-c2ccc(CNC(=O)c3ncco3)c3cnccc23)c1 [Example 38, N-((5-(3-methoxyphenyl)isoquinolin-8-yl)methyl)oxazole-2-carboxamide]"
10,993,"COc1cccc(-c2ccc(CNC(=O)Cc3ccccc3F)c3cnccc23)c1 [Example 49, 2-(2-fluorophenyl)-N-((5-(3-methoxyphenyl)isoquinolin-8-yl)methyl)acetamide]"
11,6000,"COc1cccc(-c2ccc(CNC(=O)c3ccc4nccnc4c3)c3cnccc23)c1 [Example 40, N-((5-(3-methoxyphenyl)isoquinolin-8-yl)methyl)quinoxaline-6-carboxamide]"
12,3890,"COc1cccc(-c2ccc(CNC(=O)c3noc(-c4ccccc4)n3)c3cnccc23)c1 [Example 72, N-((5-(3-methoxyphenyl)isoquinolin-8-yl)methyl)-5-phenyl-1,2,4-oxadiazole-3-carboxamide]"
13,4240,"COc1cccc(-c2ccc(CNC(=O)c3cc(Br)cnc3-c3ccccc3)c3cnccc23)c1 [Example 120, 5-bromo-N-((5-(3-methoxyphenyl)isoquinolin-8-yl)methyl)-2-phenylnicotinamide]"
14,2230,"COc1cccc(-c2ccc(CNC(=O)Cc3nc(-c4ccccc4)cs3)c3cnccc23)c1 [Example 89, N-((5-(3-methoxyphenyl)isoquinolin-8-yl)methyl)-2-(4-phenylthiazol-2-yl)acetamide]"
15,1110,"COC(=O)c1ccccc1NC(=O)NCc1ccc(-c2cccc(OC)c2)c2ccncc12 [Example 153, methyl 2-(3-((5-(3-methoxyphenyl)isoquinolin-8-yl)methyl)ureido)benzoate]"

# Further lines, the compound ahead of its results:
row,SMILES,IC50 [nM]
1,"COc1cccc(-c2ccc(CNC(=O)C3CC34CCCC4)c3cnccc23)c1 (stereo not drawn) [Example 98, N-((5-(3-methoxyphenyl)isoquinolin-8-yl)methyl)spiro[2.4]heptane-1-carboxamide]",7400
2,"COc1cccc(-c2ccc(CNC(=O)c3cnco3)c3cnccc23)c1 [Example 37, N-((5-(3-methoxyphenyl)isoquinolin-8-yl)methyl)oxazole-5-carboxamide]",1270
3,"COc1cccc(-c2ccc(CNC(=O)c3cc(Br)cnc3F)c3cnccc23)c1 [Example 131, 5-bromo-2-fluoro-N-((5-(3-methoxyphenyl)isoquinolin-8-yl)methyl)nicotinamide]",400
4,"COc1cccc(-c2ccc(CNC(=O)C(C)c3ccc(C4CCCCC4)c(Cl)c3)c3cnccc23)c1 (stereo not drawn) [Example 148, 2-(3-chloro-4-cyclohexylphenyl)-N-((5-(3-methoxyphenyl)isoquinolin-8-yl)methyl)propanamide]",6890
5,"N#Cc1cccc(-c2ccc(CNC(=O)[C@@H]3C[C@H]3c3ccccc3)c3cnccc23)c1 (relative stereo) [Example 16, (trans)-N-((5-(3-cyanophenyl)isoquinolin-8-yl)methyl)-2-phenylcyclopropanecarboxamide]",3470
6,"COc1cccc(-c2ccc(CNC(=O)[C@H]3C[C@@H]3c3nc(C)no3)c3cnccc23)c1 (relative stereo) [Example 108, (trans)-N-((5-(3-methoxyphenyl)isoquinolin-8-yl)methyl)-2-(3-methyl-1,2,4-oxadiazol-5-yl) cyclopropanecarboxamide]",589
7,"COc1cccc(-c2ccc(CNC(=O)c3ccnc(-n4cnnn4)c3)c3cnccc23)c1 [Example 69, N-((5-(3-methoxyphenyl)isoquinolin-8-yl)methyl)-2-(1H-tetrazol-1-yl)isonicotinamide]",3410
8,"COc1cccc(-c2ccc(CNC(=O)C3CC3c3ccc(Cl)cc3)c3cnccc23)c1 (stereo not drawn) [Example 97, 2-(4-chlorophenyl)-N-((5-(3 methoxyphenyl)isoquinolin-8-yl)methyl)cyclopropanecarboxamide]",597
9,"COc1cccc(-c2ccc(CNC(=O)C(F)(F)c3ccc(Br)cn3)c3cnccc23)c1 [Example 116, 2-(5-bromopyridin-2-yl)-2,2-difluoro-N-((5-(3-methoxyphenyl)isoquinolin-8-yl)methyl)acetamide]",8130
10,"COc1cccc(-c2ccc(CNC(=O)C(C)(C)Oc3ccc(C(F)(F)F)cn3)c3cnccc23)c1 [Example 112, N-((5-(3-methoxyphenyl)isoquinolin-8-yl)methyl)-2-methyl-2-((5-(trifluoromethyl)pyridin-2-yl)oxy)propanamide]",1160
11,"COc1cccc(-c2ccc(CNC(=O)c3cnccc3C(F)(F)F)c3cnccc23)c1 [Example 127, N-((5-(3-methoxyphenyl)isoquinolin-8-yl)methyl)-4-(trifluoromethyl)nicotinamide]",1420
12,"COc1ccc([C@H]2C[C@@H]2C(=O)NCc2ccc(-c3cccc(OC)c3)c3ccncc23)cc1 [Example 23, (1S,2S)-2-(4-methoxyphenyl)-N-((5-(3-methoxyphenyl)isoquinolin-8-yl)methyl)cyclopropanecarboxamide]",9960
13,"CNC(=O)c1cccc(-c2ccc(CNC(=O)Nc3cccc(Cl)c3Cl)c3cnccc23)c1 [Example 161, 3-(8-((3-(2,3-dichlorophenyl)ureido)methyl)isoquinolin-5-yl)-N-methylbenzamide]",1210
14,"COC(=O)c1cccc(-c2ccc(CNC(=O)[C@@H]3C[C@H]3c3ccccc3)c3cnccc23)c1 [Example 3, methyl 3-(8-(((1R,2R)-2-phenylcyclopropanecarboxamido)methyl)isoquinolin-5-yl)benzoate]",82.7
15,"COC(=O)c1cccc(-c2ccc(CNC(=O)C3CC34CCCC4)c3cnccc23)c1 (stereo not drawn) [Example 10, methyl 3-(8-((spiro[2.4]heptane-1-carboxamido)methyl)isoquinolin-5-yl)benzoate]",162
16,"COc1cccc(-c2ccc(CNC(=O)c3ccc(-c4ccc(F)cc4)cc3)c3cnccc23)c1 [Example 86, 4′-fluoro-N-((5-(3-methoxyphenyl)isoquinolin-8-yl)methyl)-[1,1′-biphenyl]-4-carboxamide]",1400
17,"COc1cccc(-c2ccc(CNC(=O)C(C)c3ccc(OC(F)(F)F)cc3)c3cnccc23)c1 (stereo not drawn) [Example 137, N-((5-(3-methoxyphenyl)isoquinolin-8-yl)methyl)-2-(4-(trifluoromethoxy)phenyl)propanamide]",484
18,"COc1cccc(-c2ccc(CNC(=O)C34CC(C3)C4)c3cnccc23)c1 [Example 130, N-((5-(3-methoxyphenyl)isoquinolin-8-yl)methyl)bicyclo[1.1.1]pentane-1-carboxamide]",268
19,"COc1cccc(-c2ccc(CNC(=O)C(C)(C)Oc3ccc(C(F)(F)F)cc3)c3cnccc23)c1 [Example 111, N-((5-(3-methoxyphenyl)isoquinolin-8-yl)methyl)-2-methyl-2-(4-(trifluoromethyl)phenoxy)propanamide]",1230
20,"COc1cccc(-c2ccc(CNC(=O)C3CC3c3ccccc3)c3ccccc23)c1 (stereo not drawn) [Example 172, N-((4-(3-methoxyphenyl)naphthalen-1-yl)methyl)-2-phenylcyclopropanecarboxamide]",206
21,"CCc1cc(C(=O)NCc2ccc(-c3cccc(OC)c3)c3ccncc23)n(C)n1 [Example 35, 3-ethyl-N-((5-(3-methoxyphenyl)isoquinolin-8-yl)methyl)-1-methyl-1H-pyrazole-5-carboxamide]",3440
22,"COCCCc1ccc(CNC(=O)Nc2cccc(Cl)c2Cl)c2cnccc12 [Example 159, 1-(2,3-dichlorophenyl)-3-((5-(3-methoxypropyl)isoquinolin-8-yl)methyl)urea]",478
